# Values quoted from earlier work in patent US20110212461A1, “PREDICTION OF CARDIOTOXICITY” (priority 2010, published 2011).
# Details: assessment positive or negative; marketed/external kinase inhibitors; from public literature and internal data
row,SMILES,Cardiotoxicity
1,COc1cc2ncnc(Nc3ccc(F)c(Cl)c3)c2cc1OCCCN1CCOCC1 [Iressa],Negative
2,"CCN(CC)CCNC(=O)c1c(C)[nH]c(/C=C2\C(=O)Nc3ccc(F)cc32)c1C [Sutent, sunitinib]",Positive
3,Cc1cn(-c2cc(NC(=O)c3ccc(C)c(Nc4nccc(-c5cccnc5)n4)c3)cc(C(F)(F)F)c2)cn1 [Nilotinib],Positive
4,"CNC(=O)c1cc(Oc2ccc(NC(=O)Nc3ccc(Cl)c(C(F)(F)F)c3)cc2)ccn1 [Nexavar, sorafenib]",Positive
5,CS(=O)(=O)CCNCc1ccc(-c2ccc3ncnc(Nc4ccc(OCc5cccc(F)c5)c(Cl)c4)c3c2)o1 [Tykerb],Negative
6,COc1cc2c(Nc3ccc(Br)cc3F)ncnc2cc1OCC1CCN(C)CC1 [Zactima],Positive
7,"Cc1nc(Nc2ncc(C(=O)Nc3c(C)cccc3Cl)s2)cc(N2CCN(CCO)CC2)n1 [Sprycel, dasatinib]",Positive
8,C#Cc1cccc(Nc2ncnc3cc(OCCOC)c(OCCOC)cc23)c1 [Tarceva],Negative
